Reference: patent publication EP0405273A2, “Method for producing readily soluble crystalline alfa-L-aspartyl-L-phenylalanine methyl ester” (MITSUI TOATSU CHEMICALS, Inc., priority 1989, dated 1991)
Peptide text beside a SMILES is read from it.

Columns and labels:
[1] = Solubilization test (time for complete dissolution in water); format: physicochemical; conditions: 250 mg ground sample in 250 ml pure water at 26 ± 2°C, stirred at 350 to 360 rpm, stirring and standing repeated every 30 seconds
Description: The present invention will be described in detail in the following examples, in which the solubilization test was carried out by the following procedure: Solubilization Test
Into 250 ml of pure water having a temperature of 26 ± 2°C which was being stirred (at 350 to 360 rpm by a magnetic stirrer) was poured 250 mg of a ground α-APM sample. Stirring and standing were repeated every 30 seconds. The time required for the sample to dissolve completely was measured.

[2] = Solubilization of conventionally recrystallized α-APM in water at room temperature; format: physicochemical; conditions: 250 mg crushed powder in 250 ml of water at room temperature, stirring and standing alternated every 30 seconds
Excerpt: α-APM purified y conventional recrystallization methods has the disadvantage of poor solubilization (rate of solution) in water.

[3] = widely known property stated in the prior art section; cited from earlier work

Compound | time required for the sample to dissolve completely [1] [min] | also measured
COC(=O)[C@H](Cc1ccccc1)NC(=O)[C@@H](N)CC(=O)O [Example 2, α-L-aspartyl-L-phenylalanien emthyl ester] (H-Asp-Phe-OMe) | ≤ 5 | –
COC(=O)[C@H](Cc1ccccc1)NC(=O)[C@@H](N)CC(=O)O [Comparative Example, α-L-aspartyl-L-phenylalanien emthyl ester, reference compound] (H-Asp-Phe-OMe) | 25 | –
COC(=O)[C@H](Cc1ccccc1)NC(=O)[C@@H](N)CC(=O)O [Example 5, α-L-aspartyl-L-phenylalanien emthyl ester] (H-Asp-Phe-OMe) | ≤ 5 | –
COC(=O)[C@H](Cc1ccccc1)NC(=O)[C@@H](N)CC(=O)O [α-APM obtained conventionally by recrystallization from a 50] [α-L-aspartyl-L-phenylalanien emthyl ester] (H-Asp-Phe-OMe) | – | time required to dissolve completely [2]: more than 15 minutes
COC(=O)[C@H](Cc1ccccc1)NC(=O)[C@@H](N)CC(=O)O [Example 1, α-L-aspartyl-L-phenylalanien emthyl ester] (H-Asp-Phe-OMe) | ≤ 5 | –
COC(=O)[C@H](Cc1ccccc1)NC(=O)[C@@H](N)CC(=O)O [Example 3, α-L-aspartyl-L-phenylalanien emthyl ester] (H-Asp-Phe-OMe) | ≤ 5 | –
COC(=O)[C@H](Cc1ccccc1)NC(=O)[C@@H](N)CC(=O)O [Example 4, α-L-aspartyl-L-phenylalanien emthyl ester] (H-Asp-Phe-OMe) | ≤ 5 | –
COC(=O)[C@H](Cc1ccccc1)NC(=O)[C@@H](N)CC(=O)O [α-APM, α-L-aspartyl-L-phenylalanien emthyl ester] (H-Asp-Phe-OMe) | – | degree of sweetness [3]: about 200 times the sweetness of sucrose
